Earlier results on one compound are cited in US20050226974A1 (priority 2004, published 2005).

SMILES strings stand for the structures.

Series [1] has as its system common food spoilage yeasts and moulds. Particulars: most strains of common food spoilage yeasts and moulds.
The subject of the next series is yeasts. The conditions noted are these: some yeasts.

As for `C[C@@H]1C/C=C/C=C/C=C/C=C/[C@H](O[C@@H]2O[C@H](C)[C@@H](O)[C@H](N)[C@@H]2O)C[C@@H]2O[C@](O)(C[C@@H](O)C[C@H]3O[C@@H]3/C=C/C(=O)O1)C[C@H](O)[C@H]2C(=O)O` [Natamycin], the “solubility dependence on pH” value is “most soluble at high or low pH”. In addition, the “concentrations inhibiting most strains” value in series [1] is 1-15 ppm. Moreover, the maximum solubility result (in water) is reported as “around 40 ppm”. In the series with yeasts, the minimal inhibitory concentrations result is reported as “less than 3 ppm”.
